Test results taken from patent US20120148680A1, “EYE CREAM AND PREPARATION METHOD” (MAYINGLONG PHARMACEUTICAL GROUP CO., LTD, priority 2010, published 2012).

System: red blood cells
Experiment: Stimulation test, Red Blood Cell (RBC) test system, INVITTOX n° 37
Format: cell-based
Settings: relative to SDS
Protocol: Experimental method: Refer to ECVAM DB-ALM: INVITTOX protocol; Red Blood Cell Test System INVITTOX n° 37, hereinafter referred to as RBC test system.
The basic principle of the RBC test system is to determine the damage on the cell membrane caused by chemicals and the change of cell membrane permeability resulted from it. The damage degree of the cell membrane, which is directly related to the stimulation of a product, is evaluated through determining the amount of hemoglobin leaked from red blood cells.
The absorbance of red blood cell suspension after exposure to the chemicals is determined by spectrophotometric method, then the hemolysis rate and HSO value (i.e. the concentration value of the test substance, 50% of red blood cells of which develop hemolysis) can be calculated. The HSO value and the results of two grading standards in Draize test, i.e. the maximum average Draize total score (MAS) and the 24 h after application and scores of composition parameters (cornea, conjunctiva and iris) thereof are subjected to correlation analysis to show good consistency. At the same concentration, the higher the hemolysis rate of the sample is, the stronger the stimulation of the sample is.
The stimulation ratio of each sample is as shown in the following table relative to SDS after the comparison of the SDS stimulation ratio: […]

## CCCCCCCCCCCCOS(=O)(=O)[O-].[Na+] [SDS control substance, SDS]
  Stimulation ratio: 100%
